Measurements taken from patent publication US6040337A, “5-demethoxyfumagillol derivatives and processes for preparing the same” (priority 1998, dated 2000).
In brackets after ≈: the same amount, converted by molar mass. Read-outs that look alike come from different tables or passages of the source.

Key:
[1] = test system: EL-4 (Lymphoma, murine) cells; experiment: Inhibiting activity on angiogenesis (in vitro), EL-4 cells, MTT method; format: cell-based; settings: Mus musculus, EL4, 72 h, read-out: IC50, EL-4
Experimental: (§1) Examination of the Inhibiting Activity on Angiogenesis (In Vitro)
(§2) The compound sample dissolved in DMSO was diluted to ten times by using MEM culture medium (in case of CPAE cells) without adding FBS (Fetal Bovine Serum) and RPMI 1640 culture (in case of EL-4 and P388D1 cells), and 20 of the solution was poured to each well of 96 well plate in triplicate for every concentration gradient. Then, each cell suspension was prepared and poured to examine the inhibiting activity on angiogenesis.
In case of EL-4 (Lymphoma, murine) and P388D1 (leukemia, mouse) cells, a cell suspension having 1×10^4 cells/ml was prepared with RPMI1640 (+10% FBS) culture medium, and after pouring the suspension (180 μl) to each well of 96 well plate, they were cultured in a CO2 incubator (5% CO2, humidified) for 3 days.

[2] = test system: CPAE (Calf Pulmonary Artery Endothelial) cells; experiment: Inhibiting activity on angiogenesis (in vitro), CPAE cells, SRB method; format: cell-based; settings: Bos taurus, Endothelial cell, 96 h, read-out: IC50, CPAE
Experimental: as §1, §2
In case of CPAE (Calf Pulmonary Artery Endothelial) cells (used after 2-3 subcultures), a cell suspension having 7×10^3 cells/ml was prepared with MEM (+10% FBS+50 μg/ml ECGS) medium, and after pouring the suspension (180 μl) to each well of 96 well plate, they were cultured in a CO2 incubator (5% CO2, humidified) for 4 days.

[3] = EL-4 cells, 3 days culture, MTT method
[4] = CPAE cells, 4 days culture, SRB method

Row | SMILES | IC50 [1, 3] [ng/mL] | IC50 [2, 4] [ng/mL] | IC50 [1] [ng/mL] | IC50 [2] [ng/mL]
1 | CC(C)=CC[C@H]1O[C@]1(C)[C@H]1C[C@H](OC(=O)/C=C/C=C/C=C/C=C/C(=O)O)CC[C@]12CO2 [5-Demethoxy fumagillin, 5-demethoxyfumagillin, reference compound] | 21 (≈ 49 nM) | 28 (≈ 65.3 nM) |  | 
2 | CC(C)=CC[C@H]1O[C@]1(C)[C@H]1CC(=O)CC[C@]1(O)CCl [Example 4, 3-Chloromethyl-5-demethoxy-3-hydroxy-6-oxo-6-deoxyfumagillol] | 0.46 (≈ 1.6 nM) | 0.57 (≈ 1.99 nM) |  | 
3 | CC(C)=CC[C@H]1O[C@]1(C)[C@H]1C[C@H](OC(=O)NC(=O)CCl)CC[C@]12CO2 [Example 5, 5-Demethoxy-6-O-chloroacetylcarbamoylfumagillol] |  |  | 0.52 (≈ 1.4 nM) | 0.28 (≈ 0.753 nM)
4 | COc1cc(/C=C/C(=O)O[C@@H]2CC[C@]3(CO3)[C@@H]([C@@]3(C)O[C@@H]3CC=C(C)C)C2)cc(OC)c1OC [Example 7, 5-Demethoxy-6-O-(3,4,5-trimethoxy)cinnamoyl fumagillol] | 0.066 (≈ 0.14 nM) | 0.042 (≈ 0.0889 nM) |  | 
5 | CC(C)=CC[C@H]1O[C@]1(C)[C@H]1C[C@H](OC(=O)OCc2ccccc2)CC[C@]12CO2 [Example 11, O-benzyloxycarbonyl-5-demethoxyfumagillol] | 0.041 (≈ 0.106 nM) |  |  | 0.012 (≈ 0.031 nM)
6 | CO[C@@H]1[C@H](OC(=O)/C=C/C=C/C=C/C=C/C(=O)O)CC[C@]2(CO2)[C@H]1[C@@]1(C)O[C@@H]1CC=C(C)C [Fumagillin, reference compound] |  |  | 1.6 (≈ 3.49 nM) | 3.2 (≈ 6.98 nM)

Further lines, with some results ahead:

Row | IC50 [1, 3] [ng/mL] | SMILES | IC50 [2, 4] [ng/mL] | IC50 [1] [ng/mL] | IC50 [2] [ng/mL]
7 | 0.26 (≈ 0.624 nM) | CC(C)=CC[C@H]1O[C@]1(C)[C@H]1C[C@H](OC(=O)/C=C/c2ccc(Cl)cc2)CC[C@]12CO2 [Example 8, 5-Demethoxy-6-O-(4-chlorocinnamoyl)fumagillol] | 0.32 (≈ 0.767 nM) |  | 
8 | 0.43 (≈ 1.05 nM) | CC(C)=CC[C@H]1O[C@]1(C)[C@H]1C[C@H](OC(=O)NC(=O)CCl)CC[C@]1(O)CCl [Example 9, 4-O-chloroacetylcarbamoyl-l-chloromethyl-l-cyclohexanol] | 0.36 (≈ 0.882 nM) |  | 
9 | 0.82 (≈ 1.98 nM) | COc1ccc(CCC(=O)O[C@@H]2CC[C@]3(CO3)[C@@H]([C@@]3(C)O[C@@H]3CC=C(C)C)C2)cc1 [Example 10, 5-Demethoxy-6-O-[3-(4-methoxyphenyl)propionyl] fumagillol] | 0.46 (≈ 1.11 nM) |  | 
10 | 0.41 (≈ 0.966 nM) | CC(C)=CC[C@H]1O[C@]1(C)[C@H]1CC(NC(=O)/C=C/c2ccc(N(C)C)cc2)CC[C@]12CO2 (stereo partly shown) [Example 14, 6-(4-Dimethylaminocinnamoyl)amino-5-demethoxy-6-deoxyfumagillol] | 0.19 (≈ 0.447 nM) |  | 
11 | 0.032 | CC(C)=CC[C@H]1O[C@]1(C)[C@H]1CC(=O)CC[C@]1(O)C[S+](C)C [Example 20, 2-(1,2-Epoxy-1,5-dimethyl-4-hexenyl)-1-dimethylsulfoniomethyl-4-oxo-1-cyclohexanol iodide] | 0.012 |  | 
